From ChEMBL document CHEMBL1201862, “PubChem BioAssay data set” (2004)
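Step 1: Grow cells in 96-well plates. Step 2: Expose to compound for 48 hours at 5 concentrations. Step 3: Interpolate endpoints linearly; if unreached, use highest concentration. GI50 marks 50% less growth.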 Activity calls are given as the source filed them. No stated cut-off is given here; in the data, active = GI50 up to about 1.1 µM and inactive = higher.

Key:
Test in all cases: NCI anticancer screen, dose series, 48 h
SK-MEL-2 = test system: SK-MEL-2
U-251 = test system: U-251
MCF7 = test system: MCF7
KM12 = test system: KM12
UACC-257 = test system: UACC-257
M14 = test system: M14
SK-MEL-5 = test system: SK-MEL-5
SNB-75 = test system: SNB-75
SF-539 = test system: SF-539
K562 = test system: K562
NCI/ADR-RES = test system: NCI/ADR-RES
CAKI-1 = test system: CAKI-1
COLO 205 = test system: COLO 205
MDA-MB-231 = test system: MDA-MB-231
UO-31 = test system: UO-31
Hs-578T = test system: Hs-578T
OVCAR-8 = test system: OVCAR-8
T47D = test system: T47D
CCRF-CEM = test system: CCRF-CEM

Structure (SMILES)	GI50 (SK-MEL-2)	GI50 (U-251)	GI50 (MCF7)	GI50 (KM12)	GI50 (UACC-257)	GI50 (M14)	GI50 (SK-MEL-5)	GI50 (SNB-75)	GI50 (SF-539)	GI50 (K562)	GI50 (NCI/ADR-RES)	GI50 (CAKI-1)	GI50 (COLO 205)	GI50 (MDA-MB-231)	GI50 (UO-31)	GI50 (Hs-578T)	GI50 (OVCAR-8)	GI50 (T47D)	GI50 (CCRF-CEM)
COC(=O)[C@@H]1c2c(oc3cc(CO)cc(O)c3c2=O)C=C[C@H]1O	15.2 µM (inactive)	10.5 µM (inactive)	2.86 µM (inactive)	3.71 µM (inactive)	8.85 µM (inactive)	5.97 µM (inactive)	5.73 µM (inactive)	17.9 µM (inactive)	2.67 µM (inactive)	3.28 µM (inactive)	17.9 µM (inactive)	8 µM (inactive)	5.5 µM (inactive)	14.1 µM (inactive)	3.78 µM (inactive)	24.7 µM (inactive)	5.56 µM (inactive)	2.7 µM (inactive)	1.69 µM (inactive)
COc1ccc(/C=C2\N/C(=N\N=C/C(O)C(O)C(O)C(O)CO)NC2=O)cc1 (stereo not given)	17.8 µM (inactive)	20.7 µM (inactive)	23.1 µM (inactive)	30 µM (inactive)	30.1 µM (inactive)	19.4 µM (inactive)	47.3 µM (inactive)	22.1 µM (inactive)	19.6 µM (inactive)	62.8 µM (inactive)	> 100 µM (inactive)	> 100 µM (inactive)	44.6 µM (inactive)	32.7 µM (inactive)	91 µM (inactive)	26.9 µM (inactive)	32.4 µM (inactive)	12.5 µM (inactive)	38.1 µM (inactive)
COc1cc(C2c3cc4c(cc3OC(N3CCNCC3)C2C)OCO4)cc(OC)c1OC (stereo not given)	1 µM (active)	0.675 µM (active)	0.385 µM (active)	0.441 µM (active)	3.75 µM (inactive)	0.873 µM (active)	0.38 µM (active)	0.262 µM (active)	0.344 µM (active)	0.413 µM (active)	0.597 µM (active)	0.476 µM (active)	0.416 µM (active)	0.403 µM (active)	1.69 µM (inactive)	0.17 µM (active)	2.93 µM (inactive)	0.979 µM (active)	0.538 µM (active)
Clc1ccc(Nc2nc(Cl)c3nc[nH]c3n2)cc1Cl	21.8 µM (inactive)	29.1 µM (inactive)	30.5 µM (inactive)	18.1 µM (inactive)	31.8 µM (inactive)	36.7 µM (inactive)	20.1 µM (inactive)	18.8 µM (inactive)	> 10 µM (inactive)	37.2 µM (inactive)	35.6 µM (inactive)	3.29 µM (inactive)	18.6 µM (inactive)	21.1 µM (inactive)	26.9 µM (inactive)	22.1 µM (inactive)	35.4 µM (inactive)	14.2 µM (inactive)	18.7 µM (inactive)
CC(=O)N1c2ccccc2C23CCN(C)CC4C(C)OCC(C4CC2=O)C13 (stereo not given)	> 100 µM (inactive)	> 100 µM (inactive)	> 100 µM (inactive)	> 100 µM (inactive)	> 100 µM (inactive)	> 100 µM (inactive)	> 100 µM (inactive)	> 100 µM (inactive)	> 100 µM (inactive)	> 100 µM (inactive)	> 100 µM (inactive)	> 100 µM (inactive)	> 100 µM (inactive)	> 100 µM (inactive)	> 100 µM (inactive)	> 100 µM (inactive)	> 100 µM (inactive)	> 100 µM (inactive)	> 100 µM (inactive)
Cc1cccc(/C=N/NC(=S)NCCc2ccccn2)n1	31.2 µM (inactive)	20.4 µM (inactive)	37.2 µM (inactive)	36.4 µM (inactive)	33.8 µM (inactive)	16.7 µM (inactive)	26.1 µM (inactive)	20.3 µM (inactive)	26.7 µM (inactive)	30.8 µM (inactive)	31.8 µM (inactive)	26.7 µM (inactive)	31.4 µM (inactive)	39 µM (inactive)	16.9 µM (inactive)	53.5 µM (inactive)	27.9 µM (inactive)	37.8 µM (inactive)	9.89 µM (inactive)
O=C(c1c(F)c(F)c(F)c(F)c1F)c1c(F)c(F)c(F)c(F)c1F	2.24 µM (inactive)	0.951 µM (active)	0.299 µM (active)	0.535 µM (active)	1.84 µM (inactive)	2.1 µM (inactive)	2.82 µM (inactive)	1.98 µM (inactive)	1.09 µM (active)	0.316 µM (active)	3.13 µM (inactive)	0.914 µM (active)	1.45 µM (inactive)	1.85 µM (inactive)	1.23 µM (inactive)	2.69 µM (inactive)	1.5 µM (inactive)	1.69 µM (inactive)	0.0553 µM (active)
CC(=O)NNC1=NN(C(C)=O)C2(S1)C(=O)Nc1ccc(Br)cc12 (stereo not given)	> 100 µM (inactive)	> 100 µM (inactive)	> 100 µM (inactive)	> 100 µM (inactive)	> 100 µM (inactive)	> 100 µM (inactive)	> 100 µM (inactive)	> 100 µM (inactive)	> 100 µM (inactive)	> 100 µM (inactive)	> 100 µM (inactive)	> 100 µM (inactive)	> 10 µM (inactive)	> 100 µM (inactive)	39.4 µM (inactive)	> 100 µM (inactive)	> 100 µM (inactive)	22 µM (inactive)	> 100 µM (inactive)
O=[N+]([O-])c1ccc2nc(Cl)n[n+]([O-])c2c1	15.2 µM (inactive)	16.6 µM (inactive)	5.52 µM (inactive)	23.2 µM (inactive)	15.4 µM (inactive)	14.3 µM (inactive)	6.68 µM (inactive)	14.4 µM (inactive)	11.7 µM (inactive)	1.15 µM (inactive)	24.3 µM (inactive)	16 µM (inactive)	9.04 µM (inactive)	11.7 µM (inactive)	17 µM (inactive)	37 µM (inactive)	15.2 µM (inactive)	16.8 µM (inactive)	1.06 µM (active)
CC(=O)c1c2c(cc3c1CC1(Cc4cc5c(cc4C1)C(=O)CCC5)C3)CCCC2 (stereo not given)	2.88 µM (inactive)	10.8 µM (inactive)	4.49 µM (inactive)	5.3 µM (inactive)	3.34 µM (inactive)	7.8 µM (inactive)	2.21 µM (inactive)	2.92 µM (inactive)	4.17 µM (inactive)	1.76 µM (inactive)	5 µM (inactive)	7.73 µM (inactive)	4.86 µM (inactive)	9.25 µM (inactive)	9.4 µM (inactive)	> 29.9 µM (inactive)	13.9 µM (inactive)	5.38 µM (inactive)	1.77 µM (inactive)
COc1ccc(S(=O)(=O)O)cc1NS(=O)(=O)c1ccc(C)cc1	> 100 µM (inactive)	> 100 µM (inactive)	> 100 µM (inactive)	> 100 µM (inactive)	> 100 µM (inactive)	> 100 µM (inactive)	> 100 µM (inactive)	> 100 µM (inactive)	> 100 µM (inactive)	> 100 µM (inactive)	> 100 µM (inactive)	> 100 µM (inactive)	> 100 µM (inactive)	> 100 µM (inactive)	> 100 µM (inactive)	> 100 µM (inactive)	> 100 µM (inactive)	> 100 µM (inactive)	> 100 µM (inactive)
O=C(O)C1CC(c2ccccc2)=NN1c1ccccc1 (stereo not given)	69.5 µM (inactive)	62.1 µM (inactive)	48 µM (inactive)	42.9 µM (inactive)	51.9 µM (inactive)	75 µM (inactive)	34.4 µM (inactive)	> 100 µM (inactive)	93.5 µM (inactive)	47.5 µM (inactive)	48.5 µM (inactive)	43.6 µM (inactive)	50.9 µM (inactive)	> 100 µM (inactive)	39.9 µM (inactive)	25.4 µM (inactive)	> 100 µM (inactive)	52 µM (inactive)	48.4 µM (inactive)
O=C(CCN1CCCC1)Nc1ccc2sc3ccccc3c(=O)c2n1	13.3 µM (inactive)	12.9 µM (inactive)	13 µM (inactive)	12.8 µM (inactive)	12.2 µM (inactive)	13.2 µM (inactive)	11.8 µM (inactive)	11.8 µM (inactive)	12.6 µM (inactive)	13.8 µM (inactive)	13.3 µM (inactive)	11.5 µM (inactive)	11.1 µM (inactive)	13.3 µM (inactive)	11.7 µM (inactive)	11.8 µM (inactive)	11.4 µM (inactive)	19.2 µM (inactive)	10.2 µM (inactive)
COc1ccc(-c2oc3c(OC)c(OC)c(OC)c(O)c3c(=O)c2OC)cc1OC	15.1 µM (inactive)	27.7 µM (inactive)	3.97 µM (inactive)	24.4 µM (inactive)	32.1 µM (inactive)	26.4 µM (inactive)	9.71 µM (inactive)	1.66 µM (inactive)	19.4 µM (inactive)	10.6 µM (inactive)	13.3 µM (inactive)	40.4 µM (inactive)	25.8 µM (inactive)	22.2 µM (inactive)	9.06 µM (inactive)	3.01 µM (inactive)	25.4 µM (inactive)	2.86 µM (inactive)	16.9 µM (inactive)
COc1cc2cc(C(=O)N3CC(CCl)c4ccc(O)cc43)[nH]c2c(OC)c1OC (stereo not given)	0.00169 µM (active)	0.000791 µM (active)	< 0.0001 µM (active)	0.00507 µM (active)	0.0149 µM (active)	0.00163 µM (active)	< 0.0001 µM (active)	0.00628 µM (active)	0.00171 µM (active)	0.000282 µM (active)	0.00162 µM (active)	0.00218 µM (active)	0.0227 µM (active)	0.00196 µM (active)	0.0198 µM (active)	0.016 µM (active)	0.00132 µM (active)	0.0356 µM (active)	< 0.01 µM (active)
